How the values were obtained:
[1] = target: T1, hyaluronidase of bovine origin (Bos taurus, UniProt Q2YDK3); experiment: Inhibitory effect of glycyrrhizin on hyaluronidase activity (turbidimetry of nonhydrolysed hyaluronic acid); type: biochemical; conditions: without preincubation with the enzyme; read-out: concentration of GLZ which gives 50% inhibition (IC50) of the hyaluronidase activity
T1 sequence (Q2YDK3 36-553): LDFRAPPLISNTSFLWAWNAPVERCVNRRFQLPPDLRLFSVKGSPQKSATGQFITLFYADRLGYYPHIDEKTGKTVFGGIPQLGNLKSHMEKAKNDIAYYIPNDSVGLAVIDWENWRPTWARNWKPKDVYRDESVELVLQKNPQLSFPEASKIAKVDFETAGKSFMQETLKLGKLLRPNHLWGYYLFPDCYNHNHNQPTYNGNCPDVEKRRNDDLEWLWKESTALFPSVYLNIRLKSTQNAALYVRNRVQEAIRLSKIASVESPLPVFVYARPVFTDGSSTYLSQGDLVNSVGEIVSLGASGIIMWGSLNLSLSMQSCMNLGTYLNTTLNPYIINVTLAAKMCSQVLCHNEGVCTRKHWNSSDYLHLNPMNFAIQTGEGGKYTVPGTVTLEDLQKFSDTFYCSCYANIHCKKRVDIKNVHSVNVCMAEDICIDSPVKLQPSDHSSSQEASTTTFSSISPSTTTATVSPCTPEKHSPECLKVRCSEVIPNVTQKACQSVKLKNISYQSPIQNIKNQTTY
Description: Determination of the IC50 of GLZ, with or without Preincubation at 37° C.:
GLZ, at various concentrations, is or is not preincubated for 20 minutes at 37° C. in the presence of the enzyme. The enzyme reaction is triggered by adding the hyaluronic acid solution (time T0). After incubation for 20 minutes, the nonhydrolysed hyaluronic acid is precipitated by adding acidic bovine albumin solution.
In order to verify that the preincubation step has no effect on the stability of the hyaluronidase, an aliquot of a solution of the enzyme is placed at 37° C. for 20 minutes. Another aliquot is conserved in an ice bath for 19 minutes, and is then incubated at 37° C. for 1 minute. A solution of hyaluronic acid is then added to each aliquot (TO). After incubation for 15, 30 or 45 minutes, the nonhydrolysed hyaluronic acid is precipitated by addition of acidic bovine albumin solution.
After the precipitation step, the turbidimetry of the solutions is determined on a spectrophotometer at a wavelength of 600 nm. The optical density (OD) of these solutions is subtracted from the OD of a control solution of hyaluronic acid (of the same concentration) not hydrolysed by the enzyme. This difference in OD, which is inversely proportional to the concentration of hyaluronic acid, is used to measure the activity of the hyaluronidase.

[2] = humans; cited from earlier work

CC1(C)[C@@H](O[C@H]2O[C@H](C(=O)O)[C@@H](O)[C@H](O)[C@H]2O[C@@H]2O[C@H](C(=O)O)[C@@H](O)[C@H](O)[C@H]2O)CC[C@]2(C)[C@H]3C(=O)C=C4[C@@H]5C[C@@](C)(C(=O)O)CC[C@]5(C)CC[C@@]4(C)[C@]3(C)CC[C@@H]12 [GLZ, Glycyrrhizin]
IC50 [1]: 400 µM

hyaluronic acid
excretion in the urine [2]: less than 1 % of total clearance

Source: US20110263521A1, “PHARMACEUTICAL OR COSMETIC PREPARATIONS FOR TOPICAL AND/OR PARENTERAL APPLICATION, PREPARATION METHODS THEREOF AND USE OF SAME” (priority 2007, published 2011)
